In patent US7378385B2, “Role for GLP-1 to mediate responses to disparate stressors” (University of Cincinnati, priority 2002, dated 2008):
Where no end group is shown, it is not given here.

What was measured:
[1] = test system: mammalian central nervous system; experiment: Relative potency in the mammalian central nervous system; assay type: in vivo
HPA axis [2] = experiment: Effect of central (intracerebroventricular) GLP-1 on the HPA axis, plasma ACTH and corticosterone by RIA; assay type: in vivo, rats
Procedure: Central GLP1 effects on the HPA axis were assayed as described in Kinzig et al. (2003) J. Neuroscience 21:6163-6170, herein incorporated by reference in its entirety). Ten male Long-Evans rats (275-350 gm) were housed individually in plastic tub cages with a 12 hour light/dark cycle. […] Catheters were made of sterile SILASTIC tubing, the distal end beveled, a small piece sterile suture tied at 4 cm from the distal end, and filled with heparinized saline. The catheter was attached to a 1 ml syringe filled with heparinized saline at the end that remained at the head. Under ketamine ([…], i.p.) and xylazine (1.5 mg/kg i.p.) anesthesia, the rat's abdomen and top of the head were shaved. A midline incision (approx. 8 cm in length) was made beginning at the sternum. An additional incision was made on the skull. The catheter was subcutaneously from the skull incision to the muscle wall lining the intraperitoneal cavity with a pair of straight hemostats. The muscle wall underlying the abdominal skin incision was opened. A small incision was made in the right muscle wall, through which the catheter was pulled into the intraperitoneal cavity. […] The vein was then punctured with a 21 gauge needle, and the catheter was quickly inserted to the 4 cm mark. Heparinized saline (0.5 ml) was slowly pushed through the inserted catheter. One suture was made in the dorsal muscle wall immediately to the right of the insertion site. […]
Ten days after surgery, cannula placement was verified by administering angiotensin II through the cannula (intracerebroventricular, (i3vt)). Catheter patency was also determined 10 days after surgery. […]
Plasma was extracted and subsequently assayed (RIA) for ACTH and corticosterone (CORT). Results from one such experiment are presented in FIG. 1, panels A and B. Results were analyzed by two-way ANOVA and Tukey's HSD test.
Plasma ACTH and corticosterone concentrations were determined using ^125I-labeled rat ACTH and corticosterone kits according to manufacturers' instructions. […]

HPA axis [3] = experiment: Peripheral (intraperitoneal) GLP-1 effects on the HPA axis; assay type: in vivo, rats; details: peripheral administration of GLP-1
Procedure: Plasma ACTH and corticosterone concentrations were determined using ^125I-labeled rat ACTH and corticosterone kits according to manufacturers' instructions. The limits of detection for each kit are 15 pg/ml and 8 ng/ml, respectively. For both ACTH and corticosterone assays, all plasma samples were run in duplicate in single assays.
An additional group of six rats was prepared as described in example 1 to test the effects of peripheral administration of GLP-1 on ACTH and corticosterone (CORT) release. Using a within-subjects design, rats were administered saline and 10, 100, and 500 μg/kg GLP-1 intraperitoneally. Each rat received each treatment in a randomized manner, with no less than 5 days between treatments.

Substance	potency relative to GLP-1(7-36) amide [1]	activation of the HPA axis, dose compared with dose required to decrease food intake (HPA axis [2]; GLP-1 acting in the CNS)	activity of the HPA axis (HPA axis [2]; central administration of GLP-1)	stress response (HPA axis [2]; in vivo)	activity of the HPA axis (HPA axis [3])
exendin 4: GLP-1 receptor agonist	at least 20 times	–	–	–	–
GLP-1: post-translational product of preproglucagon; ligand of the GLP-1 receptor (HAEGTFTSDVSSYLEGQAAKEFIAWLVKGR; ends and bridges not checked; UniProt P01275 98-127, looked up)	–	potent activation of the HPA axis at doses lower than that required to decrease food intake	excites the HPA axis	increases the stress response	does not
